This passage reports IC50 results from patent US20090247559A1 (Exelixis, Inc., priority 2007, published 2009).

Each structure is given as a SMILES string. Like-named read-outs stand apart in the source and are kept apart here.

In one assay the target is CK2 (Homo sapiens, UniProt P68400). Nature of the assay: CK2 inhibition, biochemical chemiluminescence holoenzyme assay (Kinase Glo, IC50 determination). The settings on record: Table 1 activity class; symbol given only if active; read-out: CK2 IC50 (Activity C). Summed up:
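Holoenzyme CK2 assay; compounds pre-incubated with substrate and enzyme, then reacted 150 min at 24-27° C. Remaining ATP measured as luminescence with Kinase Glo, and IC50 derived from the signal.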

A further assay concerns the target CDC7 (Homo sapiens, UniProt O00311). Nature of the assay: CDC7 inhibition, biochemical chemiluminescence assay (Kinase Glo, IC50 determination). As for the experimental part:
Characterization of CDC7 Inhibition in a Biochemical Chemiluminesence Assay (IC50 Determination):
The IC50 evaluation of compounds against the CDC7 enzyme was performed in a Chemiluminesence assay utilizing a Greiner 384-well white binding plate format. […] Upon addition of 10 μL of CDC-7 (GB) to the designated well plates and subsequent incubation for ten minutes at ambient temperature, 10 μL of ATP mix in Tris Base was added. Following an incubation period of 90 minutes at ambient temperature (24-27° C.), 20 μL of Kinase Glo (Promega) was added to measure kinase activity by quantitating the amount of ATP remaining in solution. The luminescence was measured following a Luciferase Protocol on either EnVision or Victor plate readers.
For orientation: In Kinase-Glo more light means more ATP remaining.

Assay [1] deals with PIM (PIM-1, PIM-2, and/or PIM-3). Kind of assay: PIM-1, PIM-2 and PIM-3 inhibition, biochemical chemiluminescence assays (Kinase Glo, IC50 determination). The settings on record: Table 1 activity class; PIM refers to PIM-1, PIM-2, and/or PIM-3; read-out: PIM IC50 (Activity B).
The mark [2] stands for this setting: Table 1 activity class, symbol given only if active, read-out: CDC7 IC50 (Activity A).
[3] abbreviates: compounds in Table 1, read-out: CDC7 IC50 value.

Chain of CK2 (P68400 whole entry): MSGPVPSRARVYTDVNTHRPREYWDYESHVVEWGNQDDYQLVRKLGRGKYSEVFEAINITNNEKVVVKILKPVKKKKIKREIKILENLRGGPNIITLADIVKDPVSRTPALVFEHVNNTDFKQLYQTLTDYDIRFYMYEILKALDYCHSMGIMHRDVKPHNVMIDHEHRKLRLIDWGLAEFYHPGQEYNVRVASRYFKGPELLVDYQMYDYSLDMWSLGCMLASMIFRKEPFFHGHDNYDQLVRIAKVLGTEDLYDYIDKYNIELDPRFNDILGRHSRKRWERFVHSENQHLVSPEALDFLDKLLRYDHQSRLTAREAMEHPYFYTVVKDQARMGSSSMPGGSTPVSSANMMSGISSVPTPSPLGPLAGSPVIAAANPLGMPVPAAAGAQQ
Chain of CK2 (P67870 whole entry partner): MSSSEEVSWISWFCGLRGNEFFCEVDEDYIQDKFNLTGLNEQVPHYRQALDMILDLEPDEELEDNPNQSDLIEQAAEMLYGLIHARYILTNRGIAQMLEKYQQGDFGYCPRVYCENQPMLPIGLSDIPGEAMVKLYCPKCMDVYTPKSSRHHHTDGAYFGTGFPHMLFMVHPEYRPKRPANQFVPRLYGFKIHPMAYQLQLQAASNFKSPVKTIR
Chain of CDC7 (O00311 whole entry): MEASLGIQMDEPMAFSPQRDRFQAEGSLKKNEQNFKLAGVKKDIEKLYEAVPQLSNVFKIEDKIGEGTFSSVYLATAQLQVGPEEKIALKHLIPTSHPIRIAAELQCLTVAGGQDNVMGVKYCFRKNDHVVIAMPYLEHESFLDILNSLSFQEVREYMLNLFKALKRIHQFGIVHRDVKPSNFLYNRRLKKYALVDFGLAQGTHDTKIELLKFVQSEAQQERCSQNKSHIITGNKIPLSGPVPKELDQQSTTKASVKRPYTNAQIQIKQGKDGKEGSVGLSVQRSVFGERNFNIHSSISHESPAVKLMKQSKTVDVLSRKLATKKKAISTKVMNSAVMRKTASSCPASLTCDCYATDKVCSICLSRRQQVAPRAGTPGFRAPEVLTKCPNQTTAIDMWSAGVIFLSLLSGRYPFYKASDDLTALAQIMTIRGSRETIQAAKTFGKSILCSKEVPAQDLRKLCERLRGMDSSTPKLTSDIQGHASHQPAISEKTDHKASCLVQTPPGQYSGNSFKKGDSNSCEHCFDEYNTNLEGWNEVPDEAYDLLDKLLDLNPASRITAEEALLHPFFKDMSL
Chain of CDC7 (Q9UBU7 whole entry partner): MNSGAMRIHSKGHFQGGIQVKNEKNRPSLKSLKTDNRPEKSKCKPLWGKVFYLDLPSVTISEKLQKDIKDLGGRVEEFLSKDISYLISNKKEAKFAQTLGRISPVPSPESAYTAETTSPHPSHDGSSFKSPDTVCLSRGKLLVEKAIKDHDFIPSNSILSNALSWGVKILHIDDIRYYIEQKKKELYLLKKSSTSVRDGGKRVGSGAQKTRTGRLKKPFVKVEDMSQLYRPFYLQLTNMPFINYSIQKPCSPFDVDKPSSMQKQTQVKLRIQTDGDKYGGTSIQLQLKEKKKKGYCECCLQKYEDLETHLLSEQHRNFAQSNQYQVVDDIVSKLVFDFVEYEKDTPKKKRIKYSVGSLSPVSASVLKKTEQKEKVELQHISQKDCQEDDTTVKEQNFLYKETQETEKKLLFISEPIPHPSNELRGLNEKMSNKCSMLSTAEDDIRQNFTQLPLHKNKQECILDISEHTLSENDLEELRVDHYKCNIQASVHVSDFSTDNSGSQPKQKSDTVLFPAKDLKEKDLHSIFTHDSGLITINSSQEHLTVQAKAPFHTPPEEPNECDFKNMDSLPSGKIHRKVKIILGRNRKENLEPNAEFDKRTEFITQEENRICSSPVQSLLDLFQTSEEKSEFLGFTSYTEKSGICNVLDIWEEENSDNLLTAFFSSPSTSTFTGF

For orientation: IC50 means the concentration that inhibits the measured activity by half. With `O=c1[nH]c(CN2CC3CCC2C3O)nc2c1oc1ccc(Br)cc12` (racemic) [Compound 332, 8-bromo-2-((7-hydroxy-2-azabicyclo[2.2.1]heptan-2-yl)methyl)benzofuro[3,2-d]pyrimidin-4(3H)-one], the IC50 on CK2 is less than 10 µM; at CDC7 (setting [2]) it was less than 10 µM; at CDC7 (setting [3]), less than 0.1 µM; in assay [1], less than 10 µM.
For the compound `COc1ccc2oc3c(=O)[nH]c(C4CCCN4)nc3c2c1` (stereo in doubt) [Compound 494, 8-(methyloxy)-2-[(2S)-pyrrolidin-2-yl][1]benzofuro[3,2-d]pyrimidin-4(3H)-one], the half-inhibitory concentration (IC50) (at CK2; at CDC7 (setting [2]); in assay [1]) was less than 10 µM each time.
As to `COc1ccc2oc3c(=O)[nH]c(C4CCCN4)nc3c2c1` (stereo in doubt) [Compound 495, 8-(methyloxy)-2-[(2R)-pyrrolidin-2-yl][1]benzofuro[3,2-d]pyrimidin-4(3H)-one], the IC50 at CK2 was less than 10 µM; at CDC7 (setting [2]), less than 10 µM; on CDC7 (setting [3]) it was less than 0.1 µM; in assay [1], less than 10 µM.
For the compound `NC(CCc1ccccc1)c1nc2c(oc3ccc(Br)cc32)c(=O)[nH]1` (stereo in doubt) [Compound 537, 2-[(1S)-1-amino-3-phenylpropyl]-8-bromo[1]benzofuro[3,2-d]pyrimidin-4(3H)-one], the IC50 (at CK2; on CDC7 (setting [2]); in assay [1]) was less than 10 µM throughout.
With `O=c1[nH]c(CN2CCCC2)nc2c1oc1ccc(Cl)cc12` [Compound 5, 8-chloro-2-(pyrrolidin-1-ylmethyl)[1]benzofuro[3,2-d]pyrimidin-4(3H)-one], the 50% inhibitory concentration (IC50) at CK2 was less than 10 µM; on CDC7 (setting [2]), less than 10 µM; at CDC7 (setting [3]), less than 0.1 µM; in assay [1], less than 10 µM.
On to `CN(C)CCCN1CCN(Cc2nc3c(oc4ccc(Br)cc43)c(=O)[nH]2)CC1` [Compound 9, 8-bromo-2-({4-[3-(dimethylamino)propyl]piperazin-1-yl}methyl)[1]benzofuro[3,2-d]pyrimidin-4(3H)-one], for which the IC50 (on CDC7 (setting [2]); in assay [1]) was less than 10 µM each time.
Take `O=c1[nH]c(CNc2cccnc2)nc2c1oc1ccc(Br)cc12` [Compound 13, 8-bromo-2-[(pyridin-3-ylamino)methyl][1]benzofuro[3,2-d]pyrimidin-4(3H)-one]: the half-maximal inhibitory concentration (IC50) (on CK2; on CDC7 (setting [2]); in assay [1]) was less than 10 µM each time.
In the case of `CN(C)C(=O)CN1CCN(Cc2nc3c(oc4ccc(Br)cc43)c(=O)[nH]2)CC1` [Compound 25, 2-{4-[(8-bromo-4-oxo-3,4-dihydro[1]benzofuro[3,2-d]pyrimidin-2-yl)methyl]piperazin-1-yl}-N,N-dimethylacetamide], the IC50 (on CK2; on CDC7 (setting [2]); in assay [1]) was less than 10 µM throughout.
For the compound `O=c1[nH]c(-c2ccc([N+](=O)[O-])cc2Cl)nc2c1oc1ccc(Br)cc12` [Compound 33, 8-Bromo-2-(2-chloro-4-nitrophenyl)[1]benzofuro[3,2-d]pyrimidin-4(3H)-one], the concentration for half-maximal inhibition (IC50) (on CK2; on CDC7 (setting [2]); in assay [1]) was less than 10 µM in each case.
For the compound `Nc1ccc(-c2nc3c(oc4ccc(Br)cc43)c(=O)[nH]2)c(Cl)c1` [Compound 34, 2-(4-Amino-2-chlorophenyl)-8-bromo[1]benzofuro[3,2-d]pyrimidin-4(3H)-one], the half-maximal inhibitory concentration (IC50) (on CK2; on CDC7 (setting [2]); in assay [1]) was less than 10 µM throughout.
For `O=c1[nH]c(-c2ccccc2I)nc2c1oc1ccc(Br)cc12` [Compound 40, 8-bromo-2-(2-iodophenyl)[1]benzofuro[3,2-d]pyrimidin-4(3H)-one], the IC50 (at CK2; at CDC7 (setting [2]); in assay [1]) was less than 10 µM each time.
`O=c1[nH]c(-c2ccncc2Br)nc2c1oc1ccc(Br)cc12` [Compound 43, 8-bromo-2-(3-bromopyridin-4-yl)[1]benzofuro[3,2-d]pyrimidin-4(3H)-one]: the half-maximal inhibitory concentration (IC50) (on CK2; on CDC7 (setting [2]); in assay [1]) was less than 10 µM throughout.
Take `O=c1[nH]c(-c2ccccc2-n2ccnc2)nc2c1oc1ccc(Br)cc12` [Compound 48, 8-bromo-2-[2-(1H-imidazol-1-yl)phenyl][1]benzofuro[3,2-d]pyrimidin-4(3H)-one]: the IC50 (on CK2; on CDC7 (setting [2]); in assay [1]) was less than 10 µM each time.
Regarding `CC(C)(N)c1nc2c(oc3ccc(Cl)cc32)c(=O)[nH]1` [Compound 49, 2-(1-Amino-1-methylethyl)-8-chloro[1]benzofuro[3,2-d]pyrimidin-4(3H)-one], the IC50 at CK2 is less than 10 µM; at CDC7 (setting [2]), less than 10 µM; at CDC7 (setting [3]), less than 0.1 µM; in assay [1], less than 10 µM.
On to `O=C(NCc1ccccc1)C1CCN(Cc2nc3c(oc4ccc(Br)cc43)c(=O)[nH]2)C1` (stereo not shown) [Compound 266, 1-[(8-bromo-4-oxo-3,4-dihydro[1]benzofuro[3,2-d]pyrimidin-2-yl)methyl]-N-(phenylmethyl)pyrrolidine-3-carboxamide], for which the IC50 at CK2 and on CDC7 (setting [2]) was less than 10 µM throughout.
Take `O=c1[nH]c(C2CNCCO2)nc2c1oc1ccc(Br)cc12` (stereo not shown) [Compound 298, 8-Bromo-2-morpholin-2-yl[1]benzofuro[3,2-d]pyrimidin-4(3H)-one]: the IC50 is less than 10 µM on CK2, less than 10 µM on CDC7 (setting [2]) and less than 0.1 µM on CDC7 (setting [3]).
`O=c1[nH]c(-c2ccc(CNC3CCNCC3)cc2Cl)nc2c1oc1ccc(Br)cc12` [Compound 387, 8-bromo-2-{2-chloro-4-[(piperidin-4-ylamino)methyl]phenyl}[1]benzofuro[3,2-d]pyrimidin-4(3H)-one]: the IC50 at CDC7 (setting [2]) was less than 10 µM.
For `O=c1[nH]c(Cc2ccccc2Br)nc2c1oc1ccc(Br)cc12` [Compound 421, 8-bromo-2-[(2-bromophenyl)methyl][1]benzofuro[3,2-d]pyrimidin-4(3H)one], the IC50 at CDC7 (setting [2]) is less than 10 µM; on CDC7 (setting [3]) it was less than 0.1 µM; in assay [1], less than 10 µM.
As to `O=c1[nH]c(CNCCN2CCCCC2)nc2c1oc1ccc(Br)cc12` [Compound 431, 8-bromo-2-{[(2-piperidin-1-ylethyl)amino]methyl}[1]benzofuro[3,2-d]pyrimidin-4(3H)-one], the IC50 (on CDC7 (setting [2]); in assay [1]) was less than 10 µM each time.
For the compound `O=c1[nH]c([C@@H]2CC(F)(F)CN2)nc2c1oc1ccc(Cl)cc12` [Compound 524, 8-chloro-2-[(2S)-4,4-difluoropyrrolidin-2-yl][1]benzofuro[3,2-d]pyrimidin-4(3H)-one], the half-maximal inhibitory concentration (IC50) is less than 10 µM on CDC7 (setting [2]), less than 0.1 µM on CDC7 (setting [3]) and less than 10 µM in assay [1].
For `O=c1[nH]c([C@@H]2C[C@H](F)CN2)nc2c1oc1ccc(Cl)cc12` [Compound 525, 8-chloro-2-[(2S,4S)-4-fluoropyrrolidin-2-yl][1]benzofuro[3,2-d]pyrimidin-4(3H)-one], the half-maximal inhibitory concentration (IC50) is less than 10 µM at CDC7 (setting [2]), less than 0.1 µM on CDC7 (setting [3]) and less than 10 µM in assay [1].
For `COc1ccc2oc3c(=O)[nH]c([C@@H]4C[C@H](F)CN4)nc3c2c1` [Compound 530, 2-[(2S,4S)-4-fluoropyrrolidin-2-yl]-8-(methyloxy)[1]benzofuro[3,2-d]pyrimidin-4(3H)-one], the IC50 is less than 10 µM at CDC7 (setting [2]), less than 0.1 µM on CDC7 (setting [3]) and less than 10 µM in assay [1].
Turning to `NC(Cc1ccccc1)c1nc2c(oc3ccc(Br)cc32)c(=O)[nH]1` (stereo not shown) [Compound 535, 2-(1-amino-2-phenylethyl)-8-bromo[1]benzofuro[3,2-d]pyrimidin-4(3H)-one], the IC50 (at CDC7 (setting [2]); in assay [1]) was less than 10 µM each time.
`NC(Cc1ccc(OCc2ccccc2)cc1)c1nc2c(oc3ccc(Br)cc32)c(=O)[nH]1` (stereo not shown) [Compound 536, 2-(1-amino-2-{4-[(phenylmethyl)oxy]phenyl}ethyl)-8-bromo[1]benzofuro[3,2-d]pyrimidin-4(3H)-one]: the 50% inhibitory concentration (IC50) (at CDC7 (setting [2]); in assay [1]) was less than 10 µM throughout.
As to `COc1ccc(CC(N)c2nc3c(oc4ccc(Br)cc43)c(=O)[nH]2)cc1` (stereo not shown) [Compound 539, 2-{1-amino-2-[4-(methyloxy)phenyl]ethyl}-8-bromo[1]benzofuro[3,2-d]pyrimidin-4(3H)-one], the IC50 (at CDC7 (setting [2]); in assay [1]) was less than 10 µM each time.
On to `NC(c1nc2c(oc3ccc(Br)cc32)c(=O)[nH]1)C1CCCCC1` (stereo not shown) [Compound 541, 2-[amino(cyclohexyl)methyl]-8-bromo[1]benzofuro[3,2-d]pyrimidin-4(3H)-one], for which the concentration for half-maximal inhibition (IC50) at CDC7 (setting [2]) is less than 10 µM; at CDC7 (setting [3]) it was less than 0.1 µM; in assay [1], less than 10 µM.
`NC1(c2nc3c(oc4ccc(Br)cc43)c(=O)[nH]2)CCCCC1` [Compound 542, 2-(1-aminocyclohexyl)-8-bromo[1]benzofuro[3,2-d]pyrimidin-4(3H)-one]: the half-maximal inhibitory concentration (IC50) on CK2 was less than 10 µM; on CDC7 (CDC7 IC50 (Activity A), Table 1 activity class, symbol given only if active), less than 10 µM; at CDC7 (CDC7 IC50 value, compounds in Table 1) it was less than 0.1 µM.
For the compound `O=c1[nH]c(-c2ccc(NCC3CCCNC3)cc2Cl)nc2c1oc1ccc(Br)cc12` (stereo not shown) [Cpd 159, 8-bromo-2-{2-chloro-4-[(piperidin-3-ylmethyl)amino]phenyl}[1]benzofuro[3,2-d]pyrimidin-4(3H)-one], the concentration for half-maximal inhibition (IC50) at CK2 and on CDC7 (setting [2]) was less than 10 µM throughout.
